# Test results: US20260138961A1, “MODULATORS OF MITOCHONDRIAL DNA REPLICATION” (Pretzel Therapeutics, Inc., priority 2022, published 2026)
# Target: T1, POLγ W748S + E1143G (Homo sapiens, UniProt P54098, E1143G/W748S)
# T1 sequence (P54098 1-1239 W748S/E1143G): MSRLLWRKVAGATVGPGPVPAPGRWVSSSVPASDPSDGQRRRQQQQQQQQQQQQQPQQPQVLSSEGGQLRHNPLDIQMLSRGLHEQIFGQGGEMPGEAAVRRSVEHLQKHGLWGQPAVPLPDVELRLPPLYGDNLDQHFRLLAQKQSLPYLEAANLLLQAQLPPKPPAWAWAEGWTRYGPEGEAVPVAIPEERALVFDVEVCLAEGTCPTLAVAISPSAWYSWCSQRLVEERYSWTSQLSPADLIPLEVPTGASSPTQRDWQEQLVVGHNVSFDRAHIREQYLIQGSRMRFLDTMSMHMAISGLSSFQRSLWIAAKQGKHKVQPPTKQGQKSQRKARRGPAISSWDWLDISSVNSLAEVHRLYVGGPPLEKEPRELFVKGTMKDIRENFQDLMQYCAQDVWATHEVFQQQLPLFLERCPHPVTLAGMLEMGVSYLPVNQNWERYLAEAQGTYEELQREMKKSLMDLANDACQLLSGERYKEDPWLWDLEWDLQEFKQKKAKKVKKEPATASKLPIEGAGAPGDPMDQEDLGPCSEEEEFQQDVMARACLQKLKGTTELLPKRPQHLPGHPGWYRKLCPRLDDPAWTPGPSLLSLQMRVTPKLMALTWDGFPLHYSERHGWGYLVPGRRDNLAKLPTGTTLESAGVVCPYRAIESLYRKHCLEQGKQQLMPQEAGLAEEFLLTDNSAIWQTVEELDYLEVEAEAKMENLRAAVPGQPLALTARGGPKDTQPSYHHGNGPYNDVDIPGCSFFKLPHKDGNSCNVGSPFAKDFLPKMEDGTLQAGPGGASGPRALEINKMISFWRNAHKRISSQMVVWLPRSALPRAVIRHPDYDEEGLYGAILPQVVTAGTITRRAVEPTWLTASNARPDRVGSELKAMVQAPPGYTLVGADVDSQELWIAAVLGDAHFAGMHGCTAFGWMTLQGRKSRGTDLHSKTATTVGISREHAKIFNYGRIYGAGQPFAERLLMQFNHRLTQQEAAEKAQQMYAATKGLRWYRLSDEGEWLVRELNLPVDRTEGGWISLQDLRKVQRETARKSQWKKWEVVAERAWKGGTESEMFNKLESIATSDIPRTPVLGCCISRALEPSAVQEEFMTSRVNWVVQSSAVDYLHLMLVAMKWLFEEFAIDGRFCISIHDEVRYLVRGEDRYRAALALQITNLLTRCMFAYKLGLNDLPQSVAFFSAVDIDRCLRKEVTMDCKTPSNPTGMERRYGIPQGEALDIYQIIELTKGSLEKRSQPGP
# T1 sequence (Q9UHN1 1-485 partner): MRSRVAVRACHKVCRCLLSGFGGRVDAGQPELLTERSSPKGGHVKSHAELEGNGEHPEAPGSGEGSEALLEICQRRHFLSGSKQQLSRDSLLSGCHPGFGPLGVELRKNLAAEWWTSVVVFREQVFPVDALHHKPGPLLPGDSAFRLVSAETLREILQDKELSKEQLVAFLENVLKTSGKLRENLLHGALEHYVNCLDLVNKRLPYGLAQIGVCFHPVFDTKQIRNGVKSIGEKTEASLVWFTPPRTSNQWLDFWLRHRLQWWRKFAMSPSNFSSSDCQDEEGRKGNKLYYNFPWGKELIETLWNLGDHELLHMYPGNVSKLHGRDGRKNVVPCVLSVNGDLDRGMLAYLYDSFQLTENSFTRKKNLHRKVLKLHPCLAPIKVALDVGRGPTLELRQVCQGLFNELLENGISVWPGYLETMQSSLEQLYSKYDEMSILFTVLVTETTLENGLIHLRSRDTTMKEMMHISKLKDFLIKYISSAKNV
# Assay: DNA polymerization assay, W748S + E1143G mutant
# Format: biochemical
# Settings: stimulation of polymerase activity, primed M13mp18 ssDNA, 37° C. 2 hours
# Method: DNA Polymerization Assay to Monitor Effects on Human Wildtype POLγ and Four Disease-Causing Mutant Variants of Human POLγ.
# The ability of small molecules to stimulate the polymerase activity of POLγ was analyzed in a quantitative fluorescence SYBR Green I assay with fluorescence intensity (FI) readout.
# In the presence of dNTPs, wild type human POLγ and mutant derivatives thereof were incubated with single-stranded, circular M13mp18 ssDNA hybridized to a short DNA oligonucleotide that functions as a primer for initiation of DNA synthesis. POLγ and mutant derivatives thereof will extend the primer and use the M13mp18 molecule as a template to synthesize long stretches of double-stranded DNA. SYBR Green I, which is a double-stranded DNA-binding dye, was used to quantify formation of double-stranded DNA in the reaction. When bound to double-stranded DNA, SYBR Green I fluorescence increases by up to 100-fold.
# The assay was performed in the 384-well plate format. Upon addition of compounds, changes in double-stranded DNA synthesis activity can be monitored by following effects on fluorescent intensity.
# The reactions also contained the accessory POLγB subunit, and the human mitochondrial single-stranded DNA binding protein (mtSSB).
# The DNA template mixture used in the assay contained 0.5 nM primed M13 mp18 ssDNA, 400 nM mtSSB, 0.1 mM Tris-HCl (pH 8.0), 0.1 mM dNTP, 10 mM MgCl2, 0.1 mg/mL BSA, 1 mM TCEP solution, and 0.02% Triton X-100. The DNA template mixture for the wild type protein contained either 100 μM dNTP, 1 μM dNTP, or 0.1 μM dNTP, designated in Table 2 as 100 μM, 1 μM, and 0.1 μM, respectfully.
# Microplates with compounds (0.1 μL in each well) to be tested in the assay were prepared from 10 mM compound stocks in 100% DMSO, and equal amounts of DMSO without any compound were added to positive and negative control wells.
# The protein mixture was dispensed (5 μL into each well) into compound plates and incubated at 37° C. for 15 minutes. After incubation, 5 μL of the DNA template mixture was dispensed into each well. The plates were then incubated at 37° C. for 2 hours.
# During incubation, a combined stop buffer and detection reagent solution was prepared. The buffer contained 25 mM EDTA (pH 8.0), 0.02% Triton X-100, and SYBR Green I [Invitrogen] diluted 10,000× (for fluorescent readout). EDTA will stop the enzymatic reaction by chelating magnesium ions.
row,SMILES,AC50 [µM]
1,"Cc1cc(S(=O)(=O)Nc2cccc(C(=O)N3CCC[C@H]3C)c2)c(C)cc1Cl [Example 10, (R)-4-chloro-2,5-dimethyl-N-(3-(2-methylpyrrolidine-1-carbonyl)phenyl)benzenesulfonamide]",2
2,"Cc1cc(S(=O)(=O)Nc2cccc(C(=O)NCc3ccccc3)c2)c(C)cc1Cl [Example 11, N-benzyl-3-((4-chloro-2,5-dimethylphenyl)sulfonamido)benzamide]",19
3,"Cc1cc(S(=O)(=O)Nc2cc(F)cc(C(=O)N3CCC[C@H]3C)c2)c(C)cc1Cl [Example 13, (R)-4-chloro-N-(3-fluoro-5-(2-methylpyrrolidine-1-carbonyl)phenyl)-2,5-dimethylbenzenesulfonamide]",4
4,"Cc1cc(S(=O)(=O)Nc2cccc(-c3ncc(C#N)s3)c2)c(C)cc1Cl [Example 96, 4-chloro-N-(3-(5-cyanothiazol-2-yl)phenyl)-2,5-dimethylbenzenesulfonamide]",2
5,"Cc1cnc(-c2ccc(C)c(NS(=O)(=O)c3cc(C)c(Cl)cc3C)c2)s1 [Example 98, 4-chloro-2,5-dimethyl-N-(2-methyl-5-(5-methylthiazol-2-yl)phenyl)benzenesulfonamide]",> 100
6,"Cc1cnc(-c2cc(NS(=O)(=O)c3cc(C)c(Cl)cc3C)ccc2C)s1 [Example 103, 4-chloro-2,5-dimethyl-N-(4-methyl-3-(5-methylthiazol-2-yl)phenyl)benzenesulfonamide]",> 100
